In US20210230131A1, “POLYAMINO BIARYL COMPOUNDS AND THEIR USE” (INSERM (INSTITUT NATIONAL DE LA SANTÉ ET DE LA RECHERCHE …, priority 2018, published 2021):

Tests used:
Tau = Tau phosphorylation by Western-blotting in hippocampus and cortex of ThyTau22 mice; format: in vivo; settings: one month treatment; for phosphorylation of Tau (overall): hippocampus and cortex
Protocol: (§1) Thy-Tau22 transgenic colonies (C57Bl/6J genetic background) were obtained by crossing heterozygous males C57Bl/6J with WT females. All animals were housed in a pathogen-free facility at 5 to 6 animals per cage (Techniplast Cages 1284L), with ad libitum access to food and water in a 12/12-hour light-dark cycle and maintained under a constant temperature of 22° C. For treatment, animals were randomly distributed and compound 30 or 31 was provided in the drinking water at a final concentration of 1 mg/kg, ie […] for drinking solutions taking into account an average weight of 25 g/mouse drinking 4 mL/day. […] Food consumption and bodyweight were also assessed. In WT animals, a pilot study of drug treatment was performed for one month to establish the innocuousness of compound 30 and 31 treatments. Thy-Tau22 females were treated for 1 months, starting at 6 months of age.
Hyperphosphorylation and phosphorylation levels of Tau. Tau expression, phosphorylation and hyperphosphorylation in the hippocampus and in the cortex were investigated by Western-blotting (FIGS. 5 and 6). The mice were euthanized by beheading and their brain was dissected and was put for few seconds in an isopropanol solution for post-mortem conservation. The samples were sonicated with a Tris-Sucrose Buffer during 30s and were prepared for Western-blot analysis by adding 1 volume of NuPage NuPAGER©LDS 2× sample buffer supplemented with 20% NuPAGER© sample reducing agents (Invitrogen). Samples were heated 10 min at 70° C. 8 μg of proteins per well were loaded onto precast 12% Criterion XT Bis-Tris polyacrylamide 26 wells gels (Bio-Rad) and electrophoresis was achieved by applying a tension of 200V during 60 min using a Criterion electrophoresis Cell with the NuPAGER©MOPS SDS running buffer (1×). Proteins were transferred to a nitrocellulose membrane of […] pore size (G&E Healthcare) using the Criterion blotting system by applying a tension of 100 V for 40 min. Molecular weights calibration was achieved using molecular weight markers (Novex and Magic Marks, Life Technologies). Protein transfer and quality were determined by a reversible Ponceau Red coloration (0.2% Xylidine Ponceau Red and 3% Trichloroacetic acid). Membranes were then blocked in 25 mM Tris-HCl pH 8.0, 150 mM NaCl, 0.1% Tween-20 (v/v) (TBS-T) and 5% (w/v) of skimmed milk (TBS-M) or 5% (w/v) of bovine serum albumin (TBS-BSA) depending on the antibody during 1 hour. […] Quantifications of protein expression levels were performed with ImageQuantTL Software. The results obtained with the quantification of the treated samples were divided by the results obtained with the quantification of the housekeeping gene (GAPDH) in order to check if the amount of proteins was homogeneous in each well. […]

Aβ1-42 peptide secretion = experiment: Quantification of secreted Aβ1-42 by ELISA in SY5Y-APP695WT cells; format: cell-based; settings: Homo sapiens; concentration inhibiting 50% of Aβ1-42 peptide secretion in SY5Y cells; 24 h treatment; mean ± SD of at least two experiments in triplicate
Protocol: (§2) Cell culture and treatment. The human neuroblastoma cell line […] was maintained in Dulbecco's modified Eagle medium (DMEM, high glucose, pyruvate-GIBCO by Life Technologies) supplemented with 10% foetal bovine serum, 2 mM L-glutamine, 1 mM non-essential amino acids and penicillin/streptomycin (GIBCO by Life Technologies) at 37° C. in a 5% CO2 humidified incubator. […] cells were maintained in 75 cm^2 culture flasks (Falcon) with supplemented DMEM medium until they reached 80% of confluence 24 h before treatment. For compounds treatment, a 10 mM stock solution was diluted in freshly supplemented DMEM medium to obtain the precise final concentration of drug. Bafilomycin A1 (BafA1), the vacuolar […] type H+ ATPase inhibitor, was purchased from Merck Millipore and was used at a final dilution of 100 nM. For drug treatment, cells were plated at a rate of 5·10^5 cells per well into 12-well plates (Falcon) and cultured with 1 mL supplemented DMEM cell medium for 24 h before drug exposure. The following day, cell medium was replaced with fresh medium containing drugs diluted at the indicated concentrations. Cells were treated for 24 h. At the end of treatments, the cell medium was collected and kept at -80° C. until use for dosage. Then, cells were rinsed once with PBS and extracted in 100 μL of Laemmli buffer (10 mM Tris, 20% glycerol and 2% Sodium dodecyl sulfate) using a cell-scraper. The cell lysate was further sonicated (30 pulses of 0.5 s, 60 Hz) for 5 min. Total protein concentration was determined using the Pierce BCA Protein Assay Kit (Thermo scientific) according to the manufacturer's instructions. Samples were stored at -80° C. until analysis. Quantification of secreted Aβ1-40/1-42 and sAPPα/sAPPβ. Conditioned media of […] collected at the end of treatments were centrifuged at 1000 g for 5 min to eliminate cells debris. Aβ1-40 and Aβ1-42 peptide concentrations in […] were determined using amyloid-beta 40 and 42 Human ELISA kits (Invitrogen) according to the manufacturer's instructions after 1:10 and 1:2 dilutions of supernatants in ELISA buffer, respectively. sAPPα and sAPPβ concentrations in ng/mL were determined using the sAPPα/sAPPβ kit (Meso Scale Diagnostics, MSD®) according to the manufacturer's instructions. Compounds of the invention (compounds 24-37, 41, 44 and 51-58) were evaluated for their ability to modulate APP processing on SY5Y human neuroblastoma cell line stably expressing the neuronal isoform of human wild-type APP695 (SYSY-APPwt). Aβ levels (Aβ1-40 and Aβ1-42) after treatment with reference and tested compounds were measured by ELISA (Table 2). […] APP carboxy-terminal fragments (αCTFs and AICD) were measured by Western blot and quantified. The effect of reference and tested compounds on αCTFs and AICD are expressed as the intensity of corresponding western-blot bands resulting from the secretase cleavages.

Aβ1-40 peptide secretion = experiment: Quantification of secreted Aβ1-40 by ELISA in SY5Y-APP695WT cells; format: cell-based; settings: Homo sapiens; concentration inhibiting 50% of Aβ1-40 peptide secretion in SY5Y cells; 24 h treatment; mean ± SD of at least two experiments in triplicate
Protocol: as §2

wild-type mice = experiment: Y-Maze short-term memory test in wild-type mice; format: in vivo; settings: treated wild-type mice, 1 mg/kg in drinking water
Protocol: as §1
Y-Maze: Short-term memory was tested on a Y-maze. The Y-maze consists of three enclosed arms surrounded by spatial clues. One arm was closed off during the learning phase. Each mouse was positioned in the Starting arm. Mice were allowed to explore the maze for 5 min. During 2 min of retention time, the closed arm was opened and the mouse was re-placed in the starting arm. […] Parameters—total distance travelled, velocity, alternation between the arms, entries into the new, starting or other arm—were measured over 5 minutes. […]

SMILES	phosphorylation of Tau (overall) (Tau)	IC50 (Aβ1-42 peptide secretion) [nM]	IC50 (Aβ1-40 peptide secretion) [nM]	Tau phosphorylation sites in the cortex (Tau; Western-blot)	Tau phosphorylation sites in the hippocampus (Tau; Western-blot)	Y-Maze behavioral task (wild-type mice)
CN(C)Cc1ccccc1-c1ccc(NCCCN2CCCCC2)c(OCCN2CCCCC2)c1 [Compound 30, 4-(2-[(Dimethylamino)methyl]phenyl)-2-[2-(piperidin-1-yl)ethoxy]-N-[3-(piperidin-1-yl)propyl]aniline]	showed less effect on Tau phosphorylation	3400 ± 1900	2800 ± 1200	–	–	–
CN(C)Cc1ccccc1-c1ccc(NCCCN2CCCCC2)c(OCCC2CCCCC2)c1 [Compound 31, 3-(2-cyclohexylethoxy)-2′-((dimethylamino)methyl)-N-(3-(piperidin-1-yl)propyl)-[1,1′-biphenyl]-4-amine]	decreased the phosphorylation of Tau in the hippocampus and in the cortex	2800 ± 100	2100 ± 300	decreased significantly the p422, AT100, p396 and p262 phosphorylation sites	p422 and p262 phosphorylation sites were also significantly reduced	succeed in the Y-Maze behavioral task
